Literature values, collected in US5935604A (Danbiosyst UK Limited, priority 1993, dated 1999).

Assays:
[1] = in vivo
[2] = man, single doses of 1 mg
[3] = nasal

Q: Which “side-effects on the heart” value (heart) does the source give for Cc1ncccc1C1CCCN1C (stereo not shown) [2-methyl nicotine] here?
A: reduced side-effects on the heart

Q: What does the source list for CN1CCCC1c1cccnc1 (stereo not shown) [nicotine]?
A: nicotine peak plasma levels (regular smokers of 15 or more cigarettes per day, daytime average): about 35 μg/l; dose of systemically available nicotine absorbed per cigarette (regular smokers, average): about 1 mg; interval between taking a puff and nicotine arriving in the brain (smoking a cigarette): 10 to 20 s; plasma nicotine level (two minutes after the first cigarette, 2 min): about 13 μg/l; potential side effects [1]: sleep disturbances and nightmares can result; rate of absorption ([2]; nasal): fast; time to maximum concentration ([2]; nasal): ≤ 10 min; differences for different nasal treatments [2]: No differences could be found

Q: For Gentamicin, which “absorption with bioadhesive microsphere system” value [3] is on record?
A: increase the absorption
